Converted amounts (≈) assume the structure as drawn.

The test system of one test is HeLa S-3 cells. The test is described as follows: HeLa S-3 cell growth inhibition test. The test is classed as cell-based. Particulars: Homo sapiens, 96 h, read-out: minimum growth inhibition concentration (MIC). The method, then: (a) HeLa S-3 Cell Growth Inhibition Test
A test compound was appropriately diluted with a liquid medium (a minimum essential medium containing a 10% fecal calf serum). The resulting liquid was poured into each well of a 96-well micro titer plate, in an amount of 0.1 ml/well. Then, HeLa S-3 cells were diluted with the same liquid medium so that the cell concentration became 2×10^4 cells/ml, and the resulting liquid was poured into each well of the above plate in an amount of 0.1 ml/well. The resulting plate was allowed to stand in a CO2 gas incubator of 37° C. for 4 days, to effect incubation. After the incubation, the supernatant liquid in each well was removed and fixation by ethanol was effected for 10 minutes. The fixed cells were tinted with a Giemsa's staining solution to determine the minimum growth inhibition concentration (MIC) of test compound for HeLa S-3 cells.
`Cc1cc2c(c3c1[nH]c1ccc(OC(=O)N4CCCCC4)cc13)C(=O)N(CCN(C)C)C2=O` [compound 44]: the MIC came to 0.8 µg/mL (≈ 1.78 µM). The same measure, in the same setting: with `Cc1cc2c(c3c1[nH]c1ccc(OC(=O)N4CCOCC4)cc13)C(=O)N(CCN(C)C)C2=O` [compound 50] the figure was 3.13 µg/mL (≈ 6.95 µM); with `Cc1cc2c(c3c1[nH]c1ccc(OC(=O)N4CCC(N5CCCCC5)CC4)cc13)C(=O)N(CCN(C)C)C2=O` [compound 55], 2.5 µg/mL (≈ 4.7 µM).

Consider `Cc1c2c(c3c([nH]c4ccc(OC(=O)N5CCC(N6CCCCC6)CC5)cc43)c1C)C(=O)N(CCN(C)C)C2=O` [compound 75], for which the MIC is 0.08 µg/mL (≈ 0.147 µM).

Staying with this test, now noted: Homo sapiens, 96 h; HeLa S-3 cells, 37° C., 4 days, Giemsa's staining; read-out: minimum growth inhibition concentration (MIC).
In the case of `CCc1cc2[nH]c3ccccc3c2c2c1C(=O)N(CCN(C)C)C2=O` [compound 4], the MIC turned out to be 0.2 µg/mL (≈ 0.596 µM). As to `Cc1c2c(c3c([nH]c4ccccc43)c1C)C(=O)N(CCN(C)C)C2=O` [compound 5], the MIC amounted to 0.125 µg/mL (≈ 0.373 µM). Still for that read-out and setting: with `Cc1cc2c(c3c4ccccc4n(C)c13)C(=O)N(CCN(C)C)C2=O` [compound 6] the figure was 0.8 µg/mL (≈ 2.39 µM); with `CN(C)CCN1C(=O)c2cc(-c3ccccc3)c3[nH]c4ccccc4c3c2C1=O` [compound 7], 0.8 µg/mL (≈ 2.09 µM). Still for that read-out and setting: with `CN(C)CCN1C(=O)c2ccc3[nH]c4cc(Cl)ccc4c3c2C1=O` [compound 8] the figure was 3.13 µg/mL (≈ 9.16 µM); with `CN(C)CCN1C(=O)c2ccc3c(c2C1=O)c1cc(Cl)ccc1n3C` [compound 10], 0.8 µg/mL (≈ 2.25 µM); with `CN(C)CCN1C(=O)c2ccc3[nH]c4ccc(F)cc4c3c2C1=O` [compound 11], 3.13 µg/mL (≈ 9.62 µM). As to `Cc1ccc2[nH]c3ccc4c(c3c2c1)C(=O)N(CCN(C)C)C4=O` [compound 12], the MIC was 3.13 µg/mL (≈ 9.74 µM). Turning to `COc1cccc2c1[nH]c1ccc3c(c12)C(=O)N(CCN(C)C)C3=O` [compound 13], the MIC was determined as 3.13 µg/mL (≈ 9.28 µM). Still for that read-out and setting: with `COc1ccc2c(c1)[nH]c1ccc3c(c12)C(=O)N(CCN(C)C)C3=O` [compound 14] the figure was 1.56 µg/mL (≈ 4.62 µM); with `COc1ccc2[nH]c3c(C)cc4c(c3c2c1)C(=O)N(CCN(C)C)C4=O` [compound 16], 0.2 µg/mL (≈ 0.569 µM).

Take `COc1ccc2c(c1)[nH]c1c(C)cc3c(c12)C(=O)N(CCN(C)C)C3=O` [compound 18]: the MIC turned out to be 0.8 µg/mL (≈ 2.28 µM). Still for that read-out and setting: then `COc1ccc2c(c1)c1c3c(ccc1n2C)C(=O)N(CCN(C)C)C3=O` [compound 19], with 0.4 µg/mL (≈ 1.14 µM). For the compound `CCn1c2ccc(OC)cc2c2c3c(ccc21)C(=O)N(CCN(C)C)C3=O` [compound 20], the MIC came to 1.56 µg/mL (≈ 4.27 µM). The same measure, in the same setting: then `COc1ccc2c(c1)c1c3c(ccc1n2C(C)=O)C(=O)N(CCN(C)C)C3=O` [compound 21], with 3.13 µg/mL (≈ 8.25 µM); and `Cc1cc2[nH]c3ccc(O)cc3c2c2c1C(=O)N(CCN(C)C)C2=O` [compound 25], with 0.04 µg/mL (≈ 0.119 µM). Same read-out and setting: then `Cc1c2c(c3c([nH]c4ccc(O)cc43)c1C)C(=O)N(CCN(C)C)C2=O` [compound 26], with 0.016 µg/mL (≈ 0.0455 µM); and `CCn1c2ccc(O)cc2c2c3c(ccc21)C(=O)N(CCN(C)C)C3=O` [compound 29], with 3.13 µg/mL (≈ 8.91 µM). Still for that read-out and setting: then `O=C1c2ccc3[nH]c4ccc(O)cc4c3c2C(=O)N1CCN1CCCCC1` [compound 33], with 3.13 µg/mL (≈ 8.61 µM); and `COc1ccc2[nH]c3ccc4c(c3c2c1)C(=O)N(CCN1CCN(C)CC1)C4=O` [compound 34], with 3.13 µg/mL (≈ 7.98 µM); and `CN(C)CCN1C(=O)c2c(O)cc3[nH]c4ccc(O)cc4c3c2C1=O` [compound 35], with 2 µg/mL (≈ 5.89 µM).

As for `COc1ccc2[nH]c3cc(OC)c4c(c3c2c1)C(=O)N(CCN(C)C)C4=O` [compound 36], the MIC was determined as 0.8 µg/mL (≈ 2.18 µM).

On to `COc1cc2c(c3c1[nH]c1ccc(OCc4ccccc4)cc13)C(=O)N(CCN(C)C)C2=O` [compound 37], for which the MIC stood at 0.2 µg/mL (≈ 0.451 µM). Same read-out and setting: with `COc1ccc2[nH]c3c(OC)cc4c(c3c2c1)C(=O)N(CCN(C)C)C4=O` [compound 40] the figure was 0.2 µg/mL (≈ 0.544 µM); with `CN(C)CCN1C(=O)c2cc(O)c3[nH]c4ccc(O)cc4c3c2C1=O` [compound 41], 0.8 µg/mL (≈ 2.36 µM). Still for that read-out and setting: with `Cc1cc2c(c3c1oc1ccccc13)C(=O)N(CCN(C)C)C2=O` [compound 43] the figure was 2.5 µg/mL (≈ 7.76 µM); with `CC(=O)Oc1ccc2[nH]c3c(C)cc4c(c3c2c1)C(=O)N(CCN(C)C)C4=O` [compound 45], 0.16 µg/mL (≈ 0.422 µM). Take `Cc1cc(O)cc2c1[nH]c1ccc3c(c12)C(=O)N(CCN(C)C)C3=O` [compound 46]: the MIC is 3.13 µg/mL (≈ 9.28 µM).

As to `Cc1cc2c(c3c1sc1ccccc13)C(=O)N(CCN(C)C)C2=O` [compound 47], the MIC stood at 0.2 µg/mL (≈ 0.591 µM). On to `Cc1cc2c(c3c1S(=O)(=O)c1ccccc1-3)C(=O)N(CCN(C)C)C2=O` [compound 48], for which the MIC was 2.5 µg/mL (≈ 6.75 µM). For the compound `CCCc1cc2c(c3c1[nH]c1ccc(O)cc13)C(=O)N(CCN(C)C)C2=O` [compound 51], the MIC amounted to 0.2 µg/mL (≈ 0.547 µM). For `CC(C)c1cc2c(c3c1[nH]c1ccc(O)cc13)C(=O)N(CCN(C)C)C2=O` [compound 52], the MIC amounted to 0.4 µg/mL (≈ 1.09 µM). Same read-out and setting: with `Cc1cc2c(c3c1[nH]c1ccc(O)cc13)C(=O)N(CCN(C(C)C)C(C)C)C2=O` [compound 53] the figure was 0.8 µg/mL (≈ 2.03 µM); with `CN(C)CCN1C(=O)c2cc(C(C)(C)C)c3[nH]c4ccc(O)cc4c3c2C1=O` [compound 54], 0.31 µg/mL (≈ 0.817 µM). The same measure, in the same setting: then `COc1ccc2sc3c(C)cc4c(c3c2c1)C(=O)N(CCN(C)C)C4=O` [compound 56], with 0.4 µg/mL (≈ 1.09 µM); and `COCc1cc2c(c3c1[nH]c1ccc(O)cc13)C(=O)N(CCN(C)C)C2=O` [compound 57], with 1 µg/mL (≈ 2.72 µM). The same measure, in the same setting: then `COc1ccc2[nH]c3c(C4CCC4)cc4c(c3c2c1)C(=O)N(CCN(C)C)C4=O` [compound 58], with 1.25 µg/mL (≈ 3.19 µM); and `CCCCc1cc2c(c3c1[nH]c1ccc(O)cc13)C(=O)N(CCN(C)C)C2=O` [compound 60], with 0.1 µg/mL (≈ 0.264 µM).

With `CCN(CC)CCN1C(=O)c2cc(C)c3sc4ccc(O)cc4c3c2C1=O` [compound 62], the MIC is 0.2 µg/mL (≈ 0.523 µM).

In the case of `CN(C)CCN1C(=O)c2cc(C3CCCCC3)c3[nH]c4ccc(O)cc4c3c2C1=O` [compound 63], the MIC is 1.25 µg/mL (≈ 3.08 µM). On the same count and under the same terms, then `CNCCN1C(=O)c2cc(C)c3[nH]c4ccc(OC)cc4c3c2C1=O` [compound 64], with 0.63 µg/mL (≈ 1.87 µM); and `COc1ccc2[nH]c3c(C)cc4c(c3c2c1)C(=O)N(CCN)C4=O` [compound 65], with 0.63 µg/mL (≈ 1.95 µM); and `CN(C)CCN1C(=O)c2ccc3sc4ccccc4c3c2C1=O` [compound 66], with 2.5 µg/mL (≈ 7.71 µM). The same measure, in the same setting: with `CN(C)CCN1C(=O)c2cc(C(F)(F)F)c3[nH]c4ccc(O)cc4c3c2C1=O` [compound 67] the figure was 2 µg/mL (≈ 5.11 µM).

As for `Cc1cc2c(c3c1[nH]c1ccc(O)cc13)C(=O)N(CCN)C2=O` [compound 68], the MIC amounted to 0.4 µg/mL (≈ 1.29 µM). Regarding `CN(C)CCN1C(=O)c2cc(C3CCCC3)c3[nH]c4ccc(O)cc4c3c2C1=O` [compound 72], the MIC is 0.16 µg/mL (≈ 0.409 µM). Consider `CN(C)CCN1C(=O)c2cc(C3(C)CC3)c3[nH]c4ccc(O)cc4c3c2C1=O` [compound 73], for which the MIC turned out to be 0.8 µg/mL (≈ 2.12 µM). As for `Cc1cc2c(c3c1[nH]c1ccc(O)cc13)C(=O)N(CCNC(C)C)C2=O` [compound 76], the MIC was found to be 0.16 µg/mL (≈ 0.455 µM). Still for that read-out and setting: with `CSc1cc2c(c3c1[nH]c1ccc(O)cc13)C(=O)N(CCN(C)C)C2=O` [compound 77] the figure was 0.63 µg/mL (≈ 1.71 µM); with `CN(C)CCN1C(=O)c2cc(Oc3ccccc3)c3[nH]c4ccc(O)cc4c3c2C1=O` [compound 78], 0.04 µg/mL (≈ 0.0963 µM); with `COc1ccc2[nH]c3c(-c4ccc(F)cc4F)cc4c(c3c2c1)C(=O)N(CCN(C)C)C4=O` [compound 79], 1.6 µg/mL (≈ 3.56 µM).

Values taken from patent publication US5166204A, “Isoindole derivatives and salts thereof and antitumor agent comprising the same” (Toyama Chemical Co., Ltd., priority 1989, dated 1992).
